# Source: patent US20060069132A1, “Azolecarboxamide herbicides” (priority 2004, published 2006)
# Tests used:
# bipinnate beggarticks = assay: Test E pre-/postemergence herbicide test; format: in vivo, Bidens bipinnata; conditions: Preemergence
# Text: (§1) Seeds of plant species selected from bipinnate beggarticks (Bidens bipinnata L.), hairy beggarticks (Bidens radiata Thuill.), bermudagrass (Cynodon dactylon (L.) Pers.), Surinam grass (Urochloa decumbens (Staph) R. D. Webster, previously named Brachiaria decumbens Stapf), large crabgrass (Digitaria sanguinalis (L.) Scop.), green foxtail (Setaria viridis (L.) P. Beauv.), goosegrass (Eleusine indica (L.) Gaertn.), johnsongrass (Sorghum halepense (L.) Pers.), kochia (Kochia scoparia (L.) Schrad.), pitted morningglory (Ipomoea lacunosa L.), purple nutsedge (Cyperus rotundus L.), common ragweed (Ambrosia elatior L.), mustard (Brassica nigra (L.) W. D. J. Koch), guineagrass (Panicum maximum Jacq.), dallisgrass (Paspalum dilatatum Poir.), barnyardgrass (Echinochloa crus-galli (L). P. Beauv.), southern sandbur (Cenchrus echinatus L.), common sowthistle (Sonchus oleraceous L.), prickly sida (Sida spinosa L.), Italian ryegrass (Lolium multiflorum Lam.), common purslane (Portulaca oleracea L.), broadleaf signalgrass (Brachiaria platyphylla (Griseb.) Nash), common groundsel (Senecio vulgaris L.), common chickweed (Stellaria media (L.) Vill/Cyr.), tropical spiderwort (Commelina benghalensis L.), annual bluegrass (Poa annua L.), downy bromegrass (Bromus tectorum L.), itchgrass (Rottboellia cochinchinensis (L.) L.f.), quackgrass (Elytrigia repens (L.) Nevski), Canada horseweed (Erigeron Canadensis L.), field bindweed (Convolvulus arvensis L.), spotted spurge (Euphorbia maculata L.), common mallow (Malva sylvestris (=s silvestris) L.), and Russian thistle (Salsola kali L. ssp. Ruthenica (Iljin) Soo) were planted and treated preemergence with test chemicals formulated in a non-phytotoxic solvent mixture which included a surfactant.
# (§2) At the same time, plants selected from these weed species were treated with postemergence applications of some of the test chemicals formulated in the same manner. Plants ranged in height from 2 to 18 cm (1- to 4-leaf stage) for postemergence treatments. Treated plants and controls were maintained in a greenhouse for 12 to 14 days, after which time all species were compared to controls and visually evaluated. Plant response ratings, summarized in Table E, are based on a scale of 0 to 100 where 0 is no effect and 100 is complete control. A dash (-) response means no test result.
# [1] = test system: smallflower umbrella sedge; assay: Test D flooded paddy test; format: in vivo, Cyperus difformis; conditions: 21 days, scale 0 to 100
# Text: (§3) Three plastic pots (ca. 16-cm diameter) per rate were partially filled with sterilized Tama silt loam soil comprising a 35:50:15 ratio of sand, silt and clay and 2.6% organic matter. Separate plantings for each of the three pots were as follows. Seeds from the U.S. of ducksalad (Heteranthera limosa (Sw.) Willd.), smallflower umbrella sedge (Cyperus difformis L.) and purple redstem (Ammannia coccinea Rottb.), were planted into one 16-cm pot for each rate. Seeds from the U.S. of rice flatsedge (Cyperus iria L.), bearded sprangletop (Leptochloa fascicularis (Lam.) Gray), one stand of 9 or 10 water seeded rice seedlings (Oryza sativa L. cv. ‘Japonica—M202’), and one stand of 6 transplanted rice seedlings (Oryza sativa L. cv. ‘Japonica—M202’) were planted into one 16-cm pot for each rate. Seeds from the U.S. of barnyardgrass (Echinochloa crus-galli (L.) Beauv.), late watergrass (Echinochloa oryzicola Vasinger), early watergrass (Echinochloa oryzoides (Ard.) Fritsch) and junglerice (Echinochloa colona (L.) Link) were planted into one 16-cm pot for each rate. Plantings were sequential so that crop and weed species were at the 2.0 to 2.5-leaf stage at time of treatment.
# (§4) Potted plants were grown in a greenhouse with day/night temperature settings of 29.5/26.7° C., and supplemental balanced lighting was provided to maintain a 16-hour photoperiod. Test pots were maintained in the greenhouse until test completion.
# (§5) At time of treatment, test pots were flooded to 3 cm above the soil surface, treated by application of test compounds directly to the paddy water, and then maintained at that water depth for the duration of the test. Effects of treatments on rice and weeds were visually evaluated by comparison to untreated controls after 21 days. Plant response ratings are reported on a 0 to 100 scale; where 0 is no effect and 100 is complete control. A dash (-) response means no test result.
# purple redstem = assay: Test D flooded paddy test; format: in vivo, Ammannia coccinea; conditions: 21 days, scale 0 to 100
# Text: as §3, §4, §5
# rice flatsedge = assay: Test D flooded paddy test; format: in vivo, Cyperus iria; conditions: 21 days, scale 0 to 100
# Text: as §3, §4, §5
# bearded sprangletop = assay: Test D flooded paddy test; format: in vivo, Leptochloa fascicularis; conditions: 21 days, scale 0 to 100
# Text: as §3, §4, §5
# [2] = test system: transplanted rice seedlings; assay: Test D flooded paddy test; format: in vivo, Oryza sativa; conditions: 21 days, scale 0 to 100
# Text: as §3, §4, §5
# [3] = test system: water seeded rice seedlings; assay: Test D flooded paddy test; format: in vivo, Oryza sativa; conditions: 21 days, scale 0 to 100
# Text: as §3, §4, §5
# early watergrass = assay: Test D flooded paddy test; format: in vivo, Echinochloa oryzoides; conditions: 21 days, scale 0 to 100
# Text: as §3, §4, §5
# junglerice = assay: Test D flooded paddy test; format: in vivo, Echinochloa colona; conditions: 21 days, scale 0 to 100
# Text: as §3, §4, §5
# kochia = assay: Test E pre-/postemergence herbicide test; format: in vivo, Kochia scoparia; conditions: Preemergence
# Text: as §1, §2
# spotted spurge = assay: Test E pre-/postemergence herbicide test; format: in vivo, Euphorbia maculata
# Text: as §1
# At the same time, plants selected from these weed species were treated with postemergence applications of some of the test chemicals formulated in the same manner. […] Treated plants and controls were maintained in a greenhouse for 12 to 14 days, after which time all species were compared to controls and visually evaluated. […]
# [4] = 250 g ai/ha, scale 0 (no effect) to 100 (complete control)
# [5] = 500 g ai/ha, scale 0 (no effect) to 100 (complete control)
smiles,measurement,setting,value
CCc1nn(C(C)(C)CC)nc1C(=O)Nc1cccc(C(=O)N(C)C)c1 [Compound 372],"Plant response rating, Beggarticks, Bip.","bipinnate beggarticks; 62 g ai/ha, scale 0 to 100",10
same,"Plant response rating, Beggarticks, Bip.","bipinnate beggarticks; 125 g ai/ha, scale 0 to 100",40
same,"Plant response rating, Beggarticks, Bip.",bipinnate beggarticks; [4],50
same,"Plant response rating, Beggarticks, Bip.",bipinnate beggarticks; [5],60
CCNC(=O)c1ccnc(NC(=O)c2cc(C(C)(C)C)nn2CC)c1 [Compound 152],"Plant response rating, Sedge, Umbrella",[1]; 8 g ai/ha,0
same,"Plant response rating, Sedge, Umbrella",[1]; 16 g ai/ha,70
same,"Plant response rating, Sedge, Umbrella",[1]; 32 g ai/ha,75
same,"Plant response rating, Sedge, Umbrella",[1]; 64 g ai/ha,85
same,"Plant response rating, Sedge, Umbrella",[1]; 125 g ai/ha,95
same,"Plant response rating, Redstem",purple redstem; 8 g ai/ha,0
same,"Plant response rating, Redstem",purple redstem; 16 g ai/ha,0
same,"Plant response rating, Redstem",purple redstem; 32 g ai/ha,60
same,"Plant response rating, Redstem",purple redstem; 64 g ai/ha,85
same,"Plant response rating, Redstem",purple redstem; 125 g ai/ha,90
same,"Plant response rating, Flatsedge, Rice",rice flatsedge; 8 g ai/ha,75
same,"Plant response rating, Flatsedge, Rice",rice flatsedge; 16 g ai/ha,75
same,"Plant response rating, Flatsedge, Rice",rice flatsedge; 32 g ai/ha,75
same,"Plant response rating, Flatsedge, Rice",rice flatsedge; 64 g ai/ha,90
same,"Plant response rating, Flatsedge, Rice",rice flatsedge; 125 g ai/ha,95
same,"Plant response rating, Sprangletop, Bearded",bearded sprangletop; 8 g ai/ha,30
same,"Plant response rating, Sprangletop, Bearded",bearded sprangletop; 16 g ai/ha,30
same,"Plant response rating, Sprangletop, Bearded",bearded sprangletop; 32 g ai/ha,30
same,"Plant response rating, Sprangletop, Bearded",bearded sprangletop; 64 g ai/ha,35
same,"Plant response rating, Sprangletop, Bearded",bearded sprangletop; 125 g ai/ha,40
same,"Plant response rating, Rice, Transplanted",[2]; 8 g ai/ha,0
same,"Plant response rating, Rice, Transplanted",[2]; 16 g ai/ha,20
same,"Plant response rating, Rice, Transplanted",[2]; 32 g ai/ha,25
same,"Plant response rating, Rice, Transplanted",[2]; 64 g ai/ha,40
same,"Plant response rating, Rice, Transplanted",[2]; 125 g ai/ha,45
same,"Plant response rating, Rice, Water Seeded",[3]; 8 g ai/ha,0
same,"Plant response rating, Rice, Water Seeded",[3]; 16 g ai/ha,20
same,"Plant response rating, Rice, Water Seeded",[3]; 32 g ai/ha,30
same,"Plant response rating, Rice, Water Seeded",[3]; 64 g ai/ha,40
same,"Plant response rating, Rice, Water Seeded",[3]; 125 g ai/ha,45
same,"Plant response rating, Watergrass, Early",early watergrass; 8 g ai/ha,0
same,"Plant response rating, Watergrass, Early",early watergrass; 16 g ai/ha,0
same,"Plant response rating, Watergrass, Early",early watergrass; 32 g ai/ha,0
same,"Plant response rating, Watergrass, Early",early watergrass; 64 g ai/ha,0
same,"Plant response rating, Watergrass, Early",early watergrass; 125 g ai/ha,45
same,"Plant response rating, Junglerice",junglerice; 8 g ai/ha,0
same,"Plant response rating, Junglerice",junglerice; 16 g ai/ha,0
same,"Plant response rating, Junglerice",junglerice; 32 g ai/ha,0
same,"Plant response rating, Junglerice",junglerice; 64 g ai/ha,0
same,"Plant response rating, Junglerice",junglerice; 125 g ai/ha,30
same,"Plant response rating, Kochia","kochia; 62 g ai/ha, scale 0 to 100",0
same,"Plant response rating, Kochia","kochia; 125 g ai/ha, scale 0 to 100",85
same,"Plant response rating, Kochia",kochia; [4],85
same,"Plant response rating, Kochia",kochia; [5],95
same,"Plant response rating, Spurge, Spotted","spotted spurge; Postemergence, 500 g ai/ha, scale 0 to 100",95
same,"Plant response rating, Spurge, Spotted","spotted spurge; Preemergence, 125 g ai/ha, scale 0 to 100",100
same,"Plant response rating, Spurge, Spotted","spotted spurge; Preemergence, 500 g ai/ha, scale 0 (no effect) to 100 (complete control)",100
